Test results: ChEMBL document CHEMBL3244027, “Syntheses, analgetic activity, and physical dependence capacity of 5-phenyl-6,7-benzomorphan derivatives” (J Med Chem, 1979)
The source made the active and inactive calls. The rule behind the calls is not given here.

How the values were obtained:
[1] = test system: Mus musculus; experiment: Analgetic activity in sc dosed CF1S mouse assessed as writhing by phenylquinone writhing test; assay type: functional
[2] = test system: Mus musculus; experiment: Analgetic activity in po dosed CF1S mouse assessed as writhing by phenylquinone writhing test; assay type: functional
[3] = test system: Mus musculus; experiment: Analgetic activity against CF-1 mouse assessed as increase in reaction time at 320 mg/kg, po by heat stimulus induced tail flick response assay; assay type: functional, organism-based; set-up: dose 320 mg/kg
[4] = Mus musculus, CF1S, sc, read-out: ED50
[5] = Mus musculus, CF1S, po, read-out: ED50

In the case of CS(=O)(=O)O.c1ccc(CCN2CCC3(c4ccccc4)CC2Cc2ccccc23)cc1 (centres undefined), the ED50 [1, 4] is reported as greater than 100 mg/kg.
For Cl.Oc1ccc2c(c1)C1(c3ccccc3)CCN(CC3CCC3)C(C2)C1 (stereo in doubt; 145), the ED50 [1] was 2.8 mg/kg and the ED50 [2] was 34 mg/kg.
For CC(=O)CCN1CCC2(c3ccccc3)c3cc(O)ccc3CC1[C@H]2C.CS(=O)(=O)O (some centres undefined), the ED50 [2, 5] was greater than 100 mg/kg.
For Br.Oc1ccc2c(c1)C1(c3ccccc3)CCN(CCN3CCOCC3)C(C2)C1 (racemic), the ED50 [1, 4] was greater than 100 mg/kg and the Activity [3] was “inactive”.
For CC(C)=CCN1CCC2(c3ccccc3)c3cc(OC(=O)c4c(Cl)cccc4Cl)ccc3CC1C2C (centres undefined), the ED50 [1, 4] was greater than 100 mg/kg.
CN1CCC2(c3ccc(O)cc3)CC1Cc1ccc(O)cc12 (racemic) was tested, and the Activity [3] was “inactive”.
Work on CN1CCC2(c3ccccc3)CC1Cc1ccc(O)cc12.Cl (stereo in doubt; 43) yielded an ED50 [1, 4] of 5.5 mg/kg.
With C=CCN1CCC2(c3ccccc3)CC1Cc1ccc(O)cc12 (stereo in doubt; 146) the Activity [3] was “inactive”.
Compound Br.CC1C2Cc3ccc(O)cc3C1(c1ccccc1)CCN2CC1COc2ccccc2O1 (centres undefined) has an ED50 [1, 4] of 84 mg/kg and an ED50 [2, 5] greater than 100 mg/kg.
For CC1C2Cc3ccc(O)cc3C1(c1ccccc1)CCN2CCC(C#N)(c1ccccc1)c1ccccc1 (stereo in doubt; 167) [listing 1 of 2 here], the Activity [3] was “inactive”.
CC1C2Cc3ccc(OC(=O)C(c4ccccc4)c4ccccc4)cc3C1(c1ccccc1)CCN2C(=O)C(c1ccccc1)c1ccccc1.O (centres undefined) was tested, and the ED50 [1, 4] was greater than 100 mg/kg and the Activity [3] was “inactive”.
Compound CN1CCC2(c3ccccc3)CC1Cc1ccccc12.O=C(O)C(O)C(O)C(=O)O (stereo in doubt; 37) has an ED50 [1] of 8 mg/kg.
CC1C2Cc3ccc(O)cc3C1(c1ccccc1)CCN2CCC(C#N)(c1ccccc1)c1ccccc1 (stereo in doubt; 167) [listing 2 of 2 here] was tested, and the ED50 [1, 4] was 110 mg/kg and the ED50 [2, 5] was greater than 100 mg/kg.
CN1CCC2(c3ccccc3)CC1Cc1ccccc12.O=C(O)C(O)C(O)C(=O)O (stereo in doubt; 36) was tested, and the ED50 [1, 4] was 5.5 mg/kg.
With CC1C2Cc3ccc(O)cc3C1(c1ccccc1)CCN2C1CCCC1.Cl (centres undefined) the ED50 [1, 4] was 120 mg/kg.
CC1C2Cc3ccc(O)cc3C1(c1ccccc1)CCN2C(=O)C12CC3CC(CC(C3)C1)C2.O (centres undefined) showed an ED50 [2, 5] greater than 100 mg/kg.
For Oc1ccc(C23CCNC(Cc4ccc(O)cc42)C3)cc1 (racemic), the Activity [3] was “inactive”.
In the case of CC1C2Cc3ccc(O)cc3C1(c1ccccc1)CCN2C/C=C/Cl (centres undefined), the ED50 [1, 4] is reported as greater than 100 mg/kg and the Activity [3] is reported as “inactive”.
CCCN1CCC2(c3ccccc3)c3cc(O)ccc3CC1C2C.Cl (stereo in doubt; 163) gave an ED50 [1] of 14 mg/kg and an ED50 [2, 5] greater than 100 mg/kg.
C/C(Cl)=C/CN1CCC2(c3ccccc3)CC1Cc1ccc(O)cc12 (racemic) showed an ED50 [1, 4] greater than 100 mg/kg.
CCCCC(=O)Oc1ccc2c(c1)C1(c3ccccc3)CCN(CC3CCC3)C(C2)C1.Cl (racemic) showed an ED50 [2, 5] greater than 100 mg/kg.
In the case of CCOC(=O)N1CCC2(c3ccccc3)CC1Cc1ccc(OC(C)=O)cc12 (racemic), the ED50 [2, 5] is reported as greater than 100 mg/kg and the Activity [3] is reported as “inactive”.
Compound Cl.Oc1ccc2c(c1)C1(c3ccccc3)CCN(CC3CC3)C(C2)C1 (centres undefined) has an ED50 [1, 4] of 15 mg/kg.
For CC(C)O.CC1C2Cc3ccc(O)cc3C1(c1ccccc1)CCN2CC1CC1.Cl (stereo in doubt; 218), the ED50 [1] was greater than 100 mg/kg.
In the case of Cl.Oc1ccc2c(c1)C1(c3ccccc3)CCN(CC3CCC3)C(C2)C1 (racemic), the ED50 [1] is reported as 6.2 mg/kg and the ED50 [2] is reported as 124 mg/kg.
For CN1CCC2(c3ccccc3)CC1Cc1ccc(O)cc12.Cl (stereo in doubt; 42), the ED50 [1] was 5.6 mg/kg.
Oc1ccc2c(c1)C1(c3ccccc3)CCN(C/C=C/c3ccccc3)C(C2)C1 (racemic) was tested, and the Activity [3] was “Active”.
In the case of C=CCN1CCC2(c3ccccc3)c3cc(O)ccc3CC1C2C.CCCO.Cl (centres undefined), the ED50 [1, 4] is reported as greater than 100 mg/kg.
Work on Oc1ccc2c(c1)C1(c3ccccc3)CCNC(C2)C1 (racemic) yielded an ED50 [1, 4] greater than 100 mg/kg.
In the case of C#CCN1CCC2(c3ccccc3)c3cc(OC)ccc3CC1C2C (centres undefined), the ED50 [1, 4] is reported as greater than 100 mg/kg.
In the case of CC(O)C(=O)O.CC1C2Cc3ccc(O)cc3C1(c1ccccc1)CCN2C/C=C/c1cccs1 (centres undefined), the ED50 [2, 5] is reported as greater than 100 mg/kg and the Activity [3] is reported as “inactive”.
CC1C2Cc3ccc(OC(=O)c4ccc(F)cc4)cc3C1(c1ccccc1)CCN2C (centres undefined) showed an ED50 [1, 4] of 0.7 mg/kg.
CCCCCN1CCC2(c3ccccc3)c3cc(O)ccc3CC1C2C (centres undefined) was tested, and the ED50 [2, 5] was greater than 100 mg/kg.
CC1C2Cc3ccc(O)cc3C1(c1ccccc1)CCN2CCCN(C)C (centres undefined) gave an ED50 [1, 4] greater than 120 mg/kg.
Compound CC1C2Cc3ccc(O)cc3C1(c1ccccc1)CCN2CC1CCC1.Cl (stereo in doubt; 219) has an ED50 [1] of 28 mg/kg and an ED50 [2, 5] of 300 mg/kg.
CC(C)O.Oc1ccc2c(c1)C1(c3ccccc3)CCNC(C2)C1 (centres undefined) gave an ED50 [1, 4] greater than 100 mg/kg.
CCCCCN1CCC2(c3ccccc3)CC1Cc1ccc(O)cc12.Cl (racemic) was tested, and the ED50 [1, 4] was 23 mg/kg and the Activity [3] was “inactive”.
CC1C2Cc3ccc(O)cc3C1(c1ccccc1)CCN2CC1CCC1.CS(=O)(=O)O (racemic) gave an ED50 [2, 5] greater than 100 mg/kg.
Work on C=CCN1CCC2(c3ccccc3)CC1Cc1ccc(O)cc12 (racemic) yielded an ED50 [1] greater than 100 mg/kg.
CC1C2Cc3ccc(O)cc3C1(c1ccccc1)CCN2CCO (racemic) showed an ED50 [1, 4] of 44 mg/kg and an ED50 [2, 5] greater than 100 mg/kg.
In the case of CC1C2Cc3ccc(O)cc3C1(c1ccccc1)CCN2CCC(c1ccccc1)c1ccccc1 (stereo in doubt; 188), the Activity [3] is reported as “inactive”.
